Where “and” joins values, the source holds several entries; their conditions need not be identical. Equal values may be shown once.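 Growth conditions: 96-well plates. Treatment: test compound, 48 hours, 5 concentrations. Analysis: linear interpolation between bracketing concentrations; unreached endpoints set to highest concentration. GI50 marks 50% less growth. TGI: total growth inhibition.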
How the values were obtained:
Experiment in all cases: NCI tumour cell line growth inhibition, 48 h
A498 renal = test system: A498 renal
A549 NSCLC = test system: A549 NSCLC
MDA-MB-231 breast = test system: MDA-MB-231 breast
MOLT-4 leukemia = test system: MOLT-4 leukemia
OVCAR-8 ovarian = test system: OVCAR-8 ovarian
U251 CNS = test system: U251 CNS
UO-31 renal = test system: UO-31 renal
PC-3 prostate = test system: PC-3 prostate

Row | Structure (SMILES) | GI50 (A498 renal) | TGI (A498 renal) | GI50 (A549 NSCLC) | TGI (A549 NSCLC) | GI50 (MDA-MB-231 breast) | TGI (MDA-MB-231 breast) | GI50 (MOLT-4 leukemia) | TGI (MOLT-4 leukemia) | GI50 (OVCAR-8 ovarian) | TGI (OVCAR-8 ovarian) | GI50 (U251 CNS) | TGI (U251 CNS) | GI50 (UO-31 renal) | TGI (UO-31 renal) | GI50 (PC-3 prostate) | TGI (PC-3 prostate)
1 | COc1cc2c3c(n(CCCNCCCNCCN)c(=O)c2cc1OC)-c1cc2c(cc1C3=O)OCO2 | > 100 µM | > 100 µM | > 100 µM | > 100 µM | 28.8 µM | > 100 µM | 10.9 µM | > 100 µM | 35.4 µM | > 100 µM | 18 µM | 44.2 µM | > 100 µM | > 100 µM | – | –
2 | N#Cc1nc(C#N)c(Sc2ccccc2)c(Sc2ccccc2)c1Sc1ccccc1 | 2.72 µM | 7.05 µM | – | – | 0.296 µM | 0.773 µM | 0.317 µM | – | 0.287 µM | 0.911 µM | 0.51 µM | 1.86 µM | 0.415 µM | 1.08 µM | 0.753 µM | 21.5 µM
3 | COc1ccc(-c2cn(-c3ccc(OC)c(OC)c3)c(=O)[nH]2)cc1 | > 100 µM | > 100 µM | > 100 µM | > 100 µM | > 100 µM | > 100 µM | 1.72 µM | > 100 µM | – | – | > 100 µM | > 100 µM | > 100 µM | > 100 µM | > 100 µM | > 100 µM
4 | [N-]=[N+]=NCCCn1c2c(c3ccc([N+](=O)[O-])cc3c1=O)C(=O)c1cc(-c3ccccc3)ccc1-2 | > 100 µM | > 100 µM | > 100 µM | > 100 µM | > 100 µM | > 100 µM | – | – | > 100 µM | > 100 µM | > 100 µM | > 100 µM | > 100 µM | > 100 µM | > 100 µM | > 100 µM
5 | COCCc1n(Cc2ccc3ccccc3c2)c2ccccc2[n+]1Cc1ccc2ccccc2c1 | 1.54 µM | 2.98 µM | 1.46 µM | 3.03 µM | 0.536 µM | 1.94 µM | – | – | – | – | – | – | 1.48 µM | 2.88 µM | 0.412 µM | 1.62 µM
6 | O=C(Nc1ccccc1)OC1OC(COC(=O)c2ccccc2)C(OC(=O)c2ccccc2)C1OS(=O)(=O)c1ccc([N+](=O)[O-])cc1 (stereo unspecified) | – | > 100 µM | – | > 100 µM | – | – | – | > 100 µM | – | > 100 µM | – | > 100 µM | – | > 100 µM | – | > 100 µM
7 | CCCCCCCCCCCCN=C(N)c1ccc(N2CCN(c3ccc(C(N)=NCCCCCCCCCCCC)cc3)CC2)cc1 | – | – | 11.1 µM | 30.5 µM | 10.3 µM | 20 µM | 4.4 µM | > 50 µM | 11.4 µM | 40.1 µM | 11.3 µM | 24.9 µM | 22.6 µM | > 50 µM | 9.02 µM | 20.2 µM
8 | NCCCNc1nc2ccccc2c2c(=O)c3cccc(Cl)c3sc12 | 1.02 µM | 2.74 µM | – | – | 1.18 µM | 2.56 µM | – | – | – | – | – | – | 1.03 µM | 2.24 µM | 1.52 µM | 2.95 µM
9 | COc1ccc(-c2cc(-c3ccc(Cl)cc3)nc(NCCCCNc3ccnc4cc(Cl)ccc34)n2)cc1 | 4.17 µM | 17.4 µM | 1.87 µM | 3.9 µM | 1.72 µM | 3.28 µM | 2.65 µM | 8.28 µM | 1.9 µM | 4.28 µM | 11 µM | 23.8 µM | 1.83 µM | 12.7 µM | – | –
10 | CC1=C(C(=O)Nc2ccc(F)c(Cl)c2)C(c2cccc(Oc3ccccc3)c2)NC(=S)N1 (stereo unspecified) | – | – | 13.7 µM | > 50 µM | 10.7 µM | 22.9 µM | > 50 µM | > 50 µM | 11.3 µM | 26.9 µM | 9.64 µM | 20.2 µM | 13.3 µM | 44.3 µM | 11.9 µM | 48.2 µM
11 | COc1cc([N+](=O)[O-])c(S(=O)(=O)O)cc1-n1nc(C(=O)Nc2ccccc2)n[n+]1-c1cc(S(=O)(=O)[O-])c([N+](=O)[O-])cc1OC | – | – | – | > 100 µM | – | – | – | > 100 µM | – | > 100 µM | – | > 100 µM | – | > 100 µM | – | > 100 µM
12 | COc1ccc2c(c1)/C(=C\c1c(-c3cc(OC)ccc3OC)nc3sccn13)C(=O)N2 | – | – | 48.6 µM | > 100 µM | 3.32 µM | 14.2 µM | – | – | – | – | 9.76 µM | 24.5 µM | 1.57 µM | 3.02 µM | 7.97 µM and 2.32 µM | 5.83 µM
13 | COc1ccccc1/C=C\C(=O)C1COCN1 (stereo unspecified) | – | – | – | 48.8 µM | – | 38.8 µM | – | > 100 µM | – | 30.6 µM | – | 28.1 µM | – | 44 µM | – | 29.1 µM
14 | COc1cc2ncnc(Nc3ccc(Oc4ccnc(C)c4)c(C)c3)c2cc1NC(=O)CC1CCSS1 (stereo unspecified) | 7.94 µM | 22.8 µM | – | – | 0.895 µM | 1.98 µM | 0.134 µM | 0.435 µM | 2.19 µM | > 50 µM | 1.15 µM | 2.81 µM | 0.853 µM | 2.83 µM | – | –
15 | O=C(Nc1cc(Cl)cc(Cl)c1)c1cccc(NC2=C(Cl)C(=O)N(Cc3ccccc3)C2=O)c1 | 22.2 µM | 50.7 µM | 36.3 µM | > 100 µM | – | – | 4.15 µM | > 100 µM | 41.7 µM | > 100 µM | 15.6 µM | > 100 µM | 16.9 µM | > 100 µM | 19.6 µM | > 100 µM

Source: PubChem BioAssay (NCI)
